The term Ki denotes a dissociation constant, usually derived from enzyme kinetics or from competition with a known ligand.

For this experiment, the target named is T1, MCH receptor (Homo sapiens, UniProt Q99705).
T1 construct: expressed in transfected cells; host or cells: CHO cells
The experiment is described as follows: MCH Receptor Binding Assay. On the procedure: MCH Receptor Binding Assay:
Membranes from CHO cells expressing the MCH receptor were prepared by lysing cells with 5 mM HEPES for 15 min at 4C. Cell lysates were centrifuged ([…], 15 min) and the pellet was re-suspended in 5 mM HEPES. For each 96-well plate (Microlite, Dynex Technologies), 1 mg of cell membranes were incubated with 10 mg of wheat germ agglutinin SPA beads (Amersham) for 5 min at 4 C in a volume of 10 ml of binding buffer (25 mM HEPES, 10 mM MGCl2, 10 mM NaCl, 5 mM MnCl2, 0.1% BSA). The membrane/bead mixture was centrifuged (1500×g, 3.5 min), the supernatant was aspirated, and the pellet was re-suspended in 10 ml binding buffer. The centrifugation, aspiration and re-suspension were then repeated. The membrane/bead mixture (100 μl) was then added to 96-well plates containing 50 μl of 500 pM [^125I]-MCH (NEN) and […] of the appropriate concentration of compound (4× the desired final concentration). Nonspecific binding was determined by including 1 μM MCH in the binding reaction. The binding reaction was incubated at room temperature for 2 h. Plates were then analyzed in a TOPCOUNT microplate scintillation counter (Packard). Data was analyzed and Ki values were determined using GraphPad Prim.

Setting [1] is: text of the example, printed unit nm, read-out: MCH Ki.
[2] abbreviates: Table 1, membranes from CHO cells expressing the MCH receptor, [125I]-MCH, SPA, read-out: MCH Ki (nm).
The mark [3] stands for this setting: Table 2, membranes from CHO cells expressing the MCH receptor, [125I]-MCH, SPA, read-out: Ki (MCH).

Read-outs that look alike come from different tables or passages of the source.

T1 sequence (Q99705 whole entry): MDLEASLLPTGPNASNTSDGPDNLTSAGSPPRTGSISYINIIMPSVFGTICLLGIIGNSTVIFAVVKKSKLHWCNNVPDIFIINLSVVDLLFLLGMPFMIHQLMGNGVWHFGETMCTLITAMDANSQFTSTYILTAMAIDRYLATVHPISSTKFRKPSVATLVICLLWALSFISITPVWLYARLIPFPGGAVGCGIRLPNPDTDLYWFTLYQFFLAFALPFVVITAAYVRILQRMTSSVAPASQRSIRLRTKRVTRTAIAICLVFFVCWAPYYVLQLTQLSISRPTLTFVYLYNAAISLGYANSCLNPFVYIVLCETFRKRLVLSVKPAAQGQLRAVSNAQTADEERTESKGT

Turning to `N#Cc1cccc(-c2ccc(CN(CC(=O)Nc3cc(Cl)cc(Cl)c3)C(=O)CCN3CCCC3)cc2)c1` [Example 1], the Ki under setting [1] was found to be 21 nM.
In the case of `N#Cc1cccc(-c2ccc(CCN(CC(=O)Nc3ccc(F)c(Cl)c3)C(=O)CN3CC[C@@H](O)C3)cc2)c1` [Example 3], the inhibition constant Ki under setting [2] worked out at 3.7 nM.
Same read-out and setting: the same measure for `N#Cc1cccc(-c2ccc(CCN(CC(=O)Nc3ccc(F)c(Cl)c3)C(=O)CN3CCCC3)cc2)c1` [Example 4]: 5.3 nM; for `N#Cc1cccc(-c2ccc(CCN(CC(=O)Nc3cc(F)cc(C(F)(F)F)c3)C(=O)CN3CC[C@@H](O)C3)cc2)c1` [Example 5]: 6.7 nM; for `N#Cc1cccc(-c2ccc(CCN(CC(=O)Nc3cc(Cl)cc(Cl)c3)C(=O)CCN3CC[C@H](O)C3)cc2)c1` [Example 6]: 7.2 nM.
On to `N#Cc1cccc(-c2ccc(CCN(CC(=O)Nc3cc(Cl)cc(Cl)c3)C(=O)CN3CCCCC3)cc2)c1` [Example 7], for which the Ki under setting [2] was 9.3 nM.
On the same count and under the same terms, the same measure for `N#Cc1cccc(-c2ccc(CCN(CC(=O)Nc3cc(Cl)cc(Cl)c3)C(=O)CCN3CCCC3)cc2)c1` [Example 9]: 10 nM; for `N#Cc1cccc(-c2ccc(CCN(CC(=O)Nc3ccc(Cl)c(C(F)(F)F)c3)C(=O)CN3CC[C@@H](O)C3)cc2)c1` [Example 10]: 11 nM.
For `N#Cc1cccc(-c2ccc(CCN(CC(=O)Nc3cc(F)cc(C(F)(F)F)c3)C(=O)CN3CCCC3)cc2)c1` [Example 11], under setting [2], the Ki was determined as 11.7 nM.
In the case of `N#Cc1cccc(-c2ccc(CCN(CC(=O)Nc3cc(Cl)cc(Cl)c3)C(=O)CCN3CC[C@@H](O)C3)cc2)c1` [Example 12], the Ki under setting [2] stood at 12 nM.
Still for that read-out and setting: the result for `N#Cc1cccc(-c2ccc(CN(CC(=O)Nc3cc(Cl)cc(Cl)c3)C(=O)NCCN3CCCC3)cc2)c1` [Example 13] reads 13 nM.
As to `N#Cc1cccc(-c2ccc(CCN(CC(=O)Nc3cc(Cl)cc(Cl)c3)C(=O)CN3CCCC3)cc2)c1` [Example 15], the Ki under setting [2] turned out to be 19 nM.
Turning to `CCCNCCC(=O)N(CCc1ccc(-c2cccc(C#N)c2)cc1)CC(=O)Nc1cc(Cl)cc(Cl)c1` [Example 16], the inhibition constant Ki under setting [2] was found to be 24 nM.
Still for that read-out and setting: the same measure for `N#Cc1cccc(-c2ccc(CCN(CC(=O)Nc3ccc(Cl)c(C(F)(F)F)c3)C(=O)CN3CCCC3)cc2)c1` [Example 17]: 25 nM.
Take `N#Cc1cccc(-c2ccc(CN(CC(=O)Nc3cc(Cl)cc(Cl)c3)C(=O)CN3CC[C@H](O)C3)cc2)c1` [Example 18]: under setting [2], the inhibition constant (Ki) came out at 27 nM.
Still for that read-out and setting: the result for `N#Cc1cccc(-c2ccc(CCN(CC(=O)Nc3ccc(F)c(C(F)(F)F)c3)C(=O)CN3CCCC3)cc2)c1` [Example 19] reads 28 nM; that for `N#Cc1cccc(-c2ccc(CCN(CC(=O)Nc3cc(Cl)cc(Cl)c3)C(=O)CCN3CCC3)cc2)c1` [Example 20], 32 nM.
Consider `N#Cc1cccc(-c2ccc(CN(CC(=O)Nc3cc(Cl)cc(Cl)c3)C(=O)CN3CCCC3)cc2)c1` [Example 21], for which the Ki under setting [2] was found to be 35 nM.
For the compound `CN(C)CC(=O)N(CC(=O)Nc1cc(Cl)cc(Cl)c1)Cc1ccc(-c2cccc(C#N)c2)cc1` [Example 22], the Ki under setting [2] was 36 nM.
As for `N#Cc1cccc(-c2ccc(CN(CC(=O)Nc3cc(Cl)cc(Cl)c3)C(=O)C3CN(C4CCCC4)C3)cc2)c1` [Example 24], the Ki under setting [2] was found to be 40 nM.
Still for that read-out and setting: the result for `CN(C)CC(=O)N(CC(=O)Nc1cc(Cl)cc(Cl)c1)c1ccc(-c2cccc(C#N)c2)cc1` [Example 25] reads 52 nM.
On the same count and under the same terms, the same measure for `CC(C(=O)Nc1cc(Cl)cc(Cl)c1)N(Cc1ccc(-c2cccc(C#N)c2)cc1)C(=O)CCN1CC[C@H](O)C1` (stereo partly drawn) [Example 26]: 56 nM.
Consider `N#Cc1cccc(-c2ccc(CN(CC(=O)Nc3cc(Cl)cc(Cl)c3)C(=O)CN3CC[C@@H](O)C3)cc2)c1` [Example 27], for which the inhibition constant (Ki) under setting [2] turned out to be 61 nM.
Regarding `CN1CCN(CC(=O)N(CCc2ccc(-c3cccc(C#N)c3)cc2)CC(=O)Nc2cc(Cl)cc(Cl)c2)CC1` [Example 28], under setting [2], the Ki turned out to be 63 nM.
Same read-out and setting: the result for `N#Cc1cccc(-c2ccc(CN(CC(=O)Nc3ccc(F)c(C(F)(F)F)c3)C(=O)CN3CCCC3)cc2)c1` [Example 29] reads 72 nM; that for `CC(C(=O)Nc1cc(Cl)cc(Cl)c1)N(Cc1ccc(-c2cccc(C#N)c2)cc1)C(=O)CCN1CCCC1` (stereo not drawn) [Example 30], 73 nM; that for `CC(=O)N[C@@H]1CCN(CC(=O)N(CCc2ccc(-c3cccc(C#N)c3)cc2)CC(=O)Nc2cc(Cl)cc(Cl)c2)C1` [Example 31], 82 nM.
Still for that read-out and setting: the same measure for `CN(C)CC(=O)N(CCc1ccc(-c2cccc(C#N)c2)cc1)CC(=O)Nc1cc(Cl)cc(Cl)c1` [Example 32]: 90 nM.
With `CC(C(=O)Nc1cc(Cl)cc(Cl)c1)N(CCc1ccc(-c2cccc(C#N)c2)cc1)C(=O)CN1CC[C@H](O)C1` (stereo partly drawn) [Example 36], the Ki under setting [2] amounted to 8 nM.
The same measure, in the same setting: the same measure for `CC(C(=O)Nc1cc(Cl)cc(Cl)c1)N(CCc1ccc(-c2cccc(C#N)c2)cc1)C(=O)CN1CCCCC1` (stereo not drawn) [Example 37]: 9 nM.
In the case of `CC(c1ccc(-c2cccc(C#N)c2)cc1)N(CC(=O)Nc1cc(Cl)cc(Cl)c1)C(=O)CN1CCCC1` (stereo not drawn) [Example 40], under setting [1], the Ki worked out at 21 nM.
In the case of `CC(c1ccc(-c2cccc(C#N)c2)cc1)N(CC(=O)Nc1cc(Cl)cc(Cl)c1)C(=O)CCN1CC[C@@H](O)C1` (stereo partly drawn) [Example 41], the Ki under setting [3] stood at 12 nM.
The same measure, in the same setting: the result for `CC(c1ccc(-c2cccc(C#N)c2)cc1)N(CC(=O)Nc1cc(Cl)cc(Cl)c1)C(=O)CN1CC[C@H](O)C1` (stereo partly drawn) [Example 42] reads 16 nM; that for `C[C@@H](c1ccc(-c2cccc(C#N)c2)cc1)N(CC(=O)Nc1cc(Cl)cc(Cl)c1)C(=O)CCN1CC[C@@H](O)C1` [Example 43], 18 nM; that for `C[C@@H](c1ccc(-c2cccc(C#N)c2)cc1)N(CC(=O)Nc1cc(Cl)cc(Cl)c1)C(=O)CCN1CCCCC1` [Example 44], 18 nM.
In the case of `CCCNCCC(=O)N(CC(=O)Nc1cc(Cl)cc(Cl)c1)[C@@H](C)c1ccc(-c2cccc(C#N)c2)cc1` [Example 45], under setting [3], the Ki was found to be 22 nM.
Still for that read-out and setting: the result for `C[C@@H](c1ccc(-c2cccc(C#N)c2)cc1)N(CC(=O)Nc1cc(Cl)cc(Cl)c1)C(=O)CCNCC1CC1` [Example 46] reads 22 nM.
Regarding `C[C@H](c1ccc(-c2cccc(C#N)c2)cc1)N(CC(=O)Nc1cc(Cl)cc(Cl)c1)C(=O)CCN1CC[C@@H](O)C1` [Example 47], under setting [3], the Ki stood at 23 nM.
On the same count and under the same terms, the result for `C[C@@H](c1ccc(-c2cccc(C#N)c2)cc1)N(CC(=O)Nc1cc(Cl)cc(Cl)c1)C(=O)CCNC1CCC1` [Example 48] reads 28 nM.
The same measure, in the same setting: the result for `C[C@H](c1ccc(-c2cccc(C#N)c2)cc1)N(CC(=O)Nc1cc(Cl)cc(Cl)c1)C(=O)CN1CC[C@@H](O)C1` [Example 49] reads 31 nM; that for `CC(C)CNCCC(=O)N(CC(=O)Nc1cc(Cl)cc(Cl)c1)[C@@H](C)c1ccc(-c2cccc(C#N)c2)cc1` [Example 50], 34 nM.
Same read-out and setting: the same measure for `C[C@@H](c1ccc(-c2cccc(C#N)c2)cc1)N(CC(=O)Nc1cc(Cl)cc(Cl)c1)C(=O)CCN(C)C` [Example 51]: 45 nM.
Consider `C[C@@H](c1ccc(-c2cccc(C#N)c2)cc1)N(CC(=O)Nc1cc(Cl)cc(Cl)c1)C(=O)CCNC1CCCC1` [Example 52], for which the Ki under setting [3] was found to be 67 nM.
For `CNCCC(=O)N(CC(=O)Nc1cc(Cl)cc(Cl)c1)[C@@H](C)c1ccc(-c2cccc(C#N)c2)cc1` [Example 53], under setting [3], the Ki is 78 nM.
In the case of `N#Cc1cccc(-c2ccc(CC(=O)N(CCCN3CCCC3)CC(=O)Nc3cc(Cl)cc(Cl)c3)cc2)c1` [Example 61], where the note is “printed unit nM, read-out: MCH Ki”, the Ki stood at 62 nM.
